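Cells were grown in 96-well plates and exposed to each compound for 48 hours at five concentrations; endpoints were interpolated linearly between bracketing concentrations, or set to the highest concentration if not reached. At the GI50, growth is halved. At the TGI there is no net growth.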
Legend:
Test in all cases: NCI-60 cell line screen, 48 h
HT29 colon = tested on: HT29 colon
K-562 leukemia = tested on: K-562 leukemia
LOX IMVI melanoma = tested on: LOX IMVI melanoma
NCI-H23 lung = tested on: NCI-H23 lung
RPMI-8226 leukemia = tested on: RPMI-8226 leukemia
RXF 393 renal = tested on: RXF 393 renal
SF-539 CNS = tested on: SF-539 CNS
SK-MEL-5 melanoma = tested on: SK-MEL-5 melanoma
SW-620 colon = tested on: SW-620 colon
T-47D breast = tested on: T-47D breast

## NC1=NC(c2ccccc2)N=C(Nc2ccccc2)N1 (stereo unspecified)
HT29 colon
  GI50: > 100 µM
  TGI: > 100 µM
K-562 leukemia
  GI50: > 100 µM
  TGI: > 100 µM
LOX IMVI melanoma
  GI50: > 100 µM
  TGI: > 100 µM
NCI-H23 lung
  GI50: > 100 µM
  TGI: > 100 µM
RPMI-8226 leukemia
  GI50: > 100 µM
  TGI: > 100 µM
RXF 393 renal
  GI50: > 100 µM
  TGI: > 100 µM
SF-539 CNS
  GI50: > 100 µM
  TGI: > 100 µM
SK-MEL-5 melanoma
  GI50: 93 µM
  TGI: > 100 µM
SW-620 colon
  GI50: > 100 µM
  TGI: > 100 µM
T-47D breast
  GI50: > 100 µM
  TGI: > 100 µM

## CCOC(OCC)C(CC)[Se]c1ccccc1[N+](=O)[O-] (stereo unspecified)
HT29 colon
  TGI: 7.31 µM
K-562 leukemia
  TGI: > 38.5 µM
LOX IMVI melanoma
  TGI: 37.8 µM
NCI-H23 lung
  TGI: > 42.7 µM
RPMI-8226 leukemia
  TGI: 23 µM
RXF 393 renal
  TGI: 5.59 µM
SF-539 CNS
  TGI: 5.61 µM
SK-MEL-5 melanoma
  TGI: 30.9 µM
SW-620 colon
  TGI: > 100 µM
T-47D breast
  TGI: > 100 µM

## CN1CCN(c2ccc(-c3cnc4c(-c5csc6ccccc56)cnn4c3)cc2)CC1
HT29 colon
  GI50: 1.19 µM
  TGI: > 15 µM
K-562 leukemia
  GI50: 3.03 µM
  TGI: > 15 µM
LOX IMVI melanoma
  GI50: 2.65 µM
  TGI: 5.4 µM
NCI-H23 lung
  GI50: 6.06 µM
  TGI: > 15 µM
RPMI-8226 leukemia
  GI50: 2.99 µM
  TGI: 9.75 µM
RXF 393 renal
  GI50: 3.5 µM
  TGI: 10.7 µM
SF-539 CNS
  GI50: 2.36 µM
  TGI: 4.62 µM
SK-MEL-5 melanoma
  GI50: 2.48 µM
  TGI: 4.54 µM
SW-620 colon
  GI50: 3.73 µM
  TGI: 10.1 µM
T-47D breast
  GI50: > 15 µM
  TGI: > 15 µM

## O=C(Oc1ccc([N+](=O)[O-])cc1)N1CCN(Cc2cccc(Oc3ccccc3)c2)CC1
HT29 colon
  GI50: 40.6 µM
  TGI: > 100 µM
K-562 leukemia
  GI50: 34.1 µM
  TGI: > 100 µM
LOX IMVI melanoma
  GI50: > 82.6 µM
  TGI: > 100 µM
NCI-H23 lung
  GI50: > 71.9 µM
  TGI: > 100 µM
RPMI-8226 leukemia
  GI50: 13.1 µM
  TGI: > 100 µM
RXF 393 renal
  GI50: > 100 µM
  TGI: > 100 µM
SF-539 CNS
  GI50: > 100 µM
  TGI: > 100 µM
SK-MEL-5 melanoma
  GI50: 18.5 µM
  TGI: 58.7 µM
SW-620 colon
  GI50: > 100 µM
  TGI: > 100 µM
T-47D breast
  GI50: 17.7 µM
  TGI: > 100 µM

## Cc1cc(=O)oc2cc(OC(=O)Nc3ccc(Cl)c(Cl)c3)ccc12
HT29 colon
  TGI: 75.4 µM
K-562 leukemia
  TGI: 28.2 µM
LOX IMVI melanoma
  TGI: 37.2 µM
NCI-H23 lung
  TGI: 53 µM
RPMI-8226 leukemia
  TGI: 36.2 µM
RXF 393 renal
  TGI: 52.3 µM
SF-539 CNS
  TGI: 38.5 µM
SK-MEL-5 melanoma
  TGI: 29.7 µM
SW-620 colon
  TGI: 48.1 µM
T-47D breast
  TGI: 68.3 µM

## Cc1cc(S(=O)(=O)Nc2nc3ccsc3c(=O)n2Cc2ccco2)c(S)cc1Cl
HT29 colon
  GI50: > 100 µM
  TGI: > 100 µM
K-562 leukemia
  GI50: 25.6 µM
  TGI: > 100 µM
LOX IMVI melanoma
  GI50: > 100 µM
  TGI: > 100 µM
NCI-H23 lung
  GI50: > 100 µM
  TGI: > 100 µM
RPMI-8226 leukemia
  GI50: 59 µM
  TGI: > 100 µM
RXF 393 renal
  GI50: > 100 µM
  TGI: > 100 µM
SF-539 CNS
  GI50: > 100 µM
  TGI: > 100 µM
SK-MEL-5 melanoma
  GI50: 42.9 µM
  TGI: > 100 µM
SW-620 colon
  GI50: > 100 µM
  TGI: > 100 µM
T-47D breast
  GI50: > 100 µM
  TGI: > 100 µM

## N#CC1C(=N)Cc2ccccc2-c2ccccc21 (stereo unspecified)
HT29 colon
  GI50: 4.1 µM
  TGI: 19.6 µM
K-562 leukemia
  GI50: 2.71 µM
  TGI: 89.4 µM
LOX IMVI melanoma
  GI50: 6.26 µM
  TGI: 33.5 µM
NCI-H23 lung
  GI50: 11.2 µM
  TGI: 68.8 µM
RPMI-8226 leukemia
  GI50: 9.03 µM
  TGI: > 100 µM
RXF 393 renal
  GI50: 9.84 µM
  TGI: 82.9 µM
SF-539 CNS
  GI50: 3.92 µM
  TGI: 25.2 µM
SK-MEL-5 melanoma
  GI50: 3.35 µM
  TGI: 11.1 µM
SW-620 colon
  GI50: 4.22 µM
  TGI: 43.4 µM
T-47D breast
  GI50: 5.61 µM
  TGI: 73.3 µM

## O=S(=O)(NC(=S)Nc1ccccc1)c1ccc(N2N=C3c4ccccc4CC3C2c2cccs2)cc1 (stereo unspecified)
HT29 colon
  GI50: 36.2 µM
  TGI: > 100 µM
K-562 leukemia
  GI50: 31.3 µM
  TGI: 56.5 µM
LOX IMVI melanoma
  GI50: 24.4 µM
  TGI: 70.7 µM
NCI-H23 lung
  GI50: 17.6 µM
  TGI: 39.5 µM
RPMI-8226 leukemia
  GI50: 30.3 µM
  TGI: 97.6 µM
RXF 393 renal
  GI50: 78.1 µM
  TGI: > 100 µM
SF-539 CNS
  GI50: 22.7 µM
  TGI: 46.3 µM
SK-MEL-5 melanoma
  GI50: 20.8 µM
  TGI: 44.7 µM
SW-620 colon
  GI50: 30 µM
  TGI: > 100 µM
T-47D breast
  GI50: > 100 µM
  TGI: > 100 µM

## CS(=O)(=O)N1CCN(Cc2cc3nc(-c4cccc5[nH]ncc45)nc(N4CCOCC4)c3s2)CC1 (tested in a mixture with another compound)
HT29 colon
  GI50: 0.074 µM
K-562 leukemia
  GI50: 0.349 µM
LOX IMVI melanoma
  GI50: 0.169 µM
NCI-H23 lung
  GI50: 0.26 µM
RPMI-8226 leukemia
  GI50: 3.48 µM
  TGI: > 100 µM
RXF 393 renal
  GI50: 0.0792 µM
  TGI: 0.371 µM
SF-539 CNS
  GI50: 0.0319 µM
  TGI: 0.108 µM
SK-MEL-5 melanoma
  GI50: 0.201 µM
  TGI: 0.638 µM
SW-620 colon
  GI50: 0.824 µM
  TGI: > 100 µM
T-47D breast
  GI50: 0.0207 µM
  TGI: 0.105 µM

## O=C1C=CC(=O)C1(Br)Br
HT29 colon
  TGI: 32.7 µM
K-562 leukemia
  TGI: > 95.1 µM
LOX IMVI melanoma
  TGI: 27.2 µM
NCI-H23 lung
  TGI: 39.9 µM
RPMI-8226 leukemia
  TGI: 20.1 µM
RXF 393 renal
  TGI: 15.9 µM
SF-539 CNS
  TGI: 30.4 µM
SK-MEL-5 melanoma
  TGI: 34 µM
SW-620 colon
  TGI: 27.9 µM
T-47D breast
  TGI: 51.6 µM

## CC(CN)[C@@H]1CC[C@]2(CO)CC[C@]3(C)[C@H](CC[C@@H]4[C@@]5(C)CCC(NCCO)C(C)(C)[C@@H]5CC[C@]43C)[C@@H]12 (stereo partly specified)
HT29 colon
  GI50: 1.62 µM
  TGI: 3.26 µM
K-562 leukemia
  GI50: 1.54 µM
  TGI: 3.35 µM
LOX IMVI melanoma
  GI50: 1.64 µM
  TGI: 3.12 µM
NCI-H23 lung
  GI50: 2.29 µM
  TGI: 5.47 µM
RPMI-8226 leukemia
  GI50: 1.89 µM
  TGI: 4.5 µM
RXF 393 renal
  GI50: 1.51 µM
  TGI: 2.97 µM
SF-539 CNS
  GI50: 1.61 µM
  TGI: 3.02 µM
SK-MEL-5 melanoma
  GI50: 1.76 µM
  TGI: 3.19 µM
SW-620 colon
  GI50: 1.71 µM
  TGI: 3.26 µM
T-47D breast
  GI50: 2.01 µM
  TGI: 4.58 µM

## Nc1nc2ccc([C@@H]3Nc4ccc5[nH]ncc5c4[C@H]4[C@H]5CCC(C5)[C@H]43)cc2s1
HT29 colon
  GI50: 0.435 µM
  TGI: 11 µM
K-562 leukemia
  GI50: 0.328 µM
  TGI: 5.87 µM
LOX IMVI melanoma
  GI50: 0.935 µM
  TGI: 2.54 µM
NCI-H23 lung
  GI50: 1.58 µM
  TGI: 3.72 µM
RPMI-8226 leukemia
  GI50: 1.39 µM
  TGI: 5.3 µM
RXF 393 renal
  GI50: 1.47 µM
  TGI: 7.56 µM
SF-539 CNS
  GI50: 0.812 µM
  TGI: 2.88 µM
SK-MEL-5 melanoma
  GI50: 1.66 µM
  TGI: 13 µM
SW-620 colon
  GI50: 0.474 µM
  TGI: 1.87 µM
T-47D breast
  GI50: 0.79 µM
  TGI: 6.16 µM

## COc1cc2c3c(n(CCCN)c(=O)c2cc1OC)-c1ccc(F)cc1C3=O
HT29 colon
  GI50: 1.03 µM
  TGI: 3.18 µM
K-562 leukemia
  GI50: 1.24 µM
  TGI: 5.28 µM
LOX IMVI melanoma
  GI50: 0.955 µM
  TGI: 4.68 µM
NCI-H23 lung
  GI50: 1.65 µM
  TGI: 9.39 µM
RPMI-8226 leukemia
  GI50: 0.605 µM
  TGI: 2.71 µM
RXF 393 renal
  GI50: 7.64 µM
  TGI: 26.6 µM
SF-539 CNS
  GI50: 1.28 µM
  TGI: 3.17 µM
SK-MEL-5 melanoma
  GI50: 1.29 µM
  TGI: 6.06 µM
SW-620 colon
  GI50: 1.17 µM
  TGI: 15.5 µM
T-47D breast
  GI50: 2.46 µM
  TGI: 15.5 µM
